Experimental data taken from paper doi:10.1101/2022.12.23.521429v4, “Structural perspective on the design of selective DYRK1B inhibitors” (biorxiv, 2025).

Assays:
[1] = molecular target: T1, DYRK1A kinase domain (126-490) (Homo sapiens, UniProt Q13627); assay: kinase activity assay; format: biochemical; settings: co-substrate and buffer of the KM determination not told
T1 construct: also printed 124-490 in b15 and 126-489), non-cleavable C-terminal His-tag kept; E. coli LOBSTR; Tyr321 phosphorylated; b63 prints Q9Y463 (swapped with DYRK1B)

[2] = molecular target: T2, DYRK1B kinase domain (78-442) (Homo sapiens, UniProt Q9Y463); assay: Sypro Orange thermal shift assay; format: binding; settings: read-out: shift in Tm
T2 construct: kinase domain 78-442, C-terminal TEV site and His-tag (ENLYFQ*GHHHHHH), His-tag cleaved by TEV; E. coli LOBSTR; Tyr273 autophosphorylated

## Nc1ncnc2c1ncn2[C@@H]1O[C@H](COP(=O)(O)OP(=O)(O)OP(=O)(O)O)[C@@H](O)[C@H]1O [ATP]
[1]
  Km: 118 µM

## COc1cc(N2CCN(C)CC2)ccc1Nc1nccc(-c2cn(C)c3cnccc23)n1 [AZ191]
[2]
  ΔTm at 10 µM: 12 °C
